Measurements: patent US20240358692A1, “TREATMENT OF SCLERODERMA” (Aisa Pharma, Inc., priority 2023, published 2024)

Tests used:
participants with SSc-RP [1] = experiment: SHAQ - Alternative Disability Index; assay type: in vivo, human; design: key to SHAQ Alternative Disability Index, In-Clinic Visit (Day 12), Median: mean of 8 category scores, 0 = no difficulty to 3 = unable to do; conditions: for % change in Alternative Disability Index: SHAQ, mITT Part A; for alternative disability index, Change from Baseline, Mean / alternative disability index, Change from Baseline, Median / alternative disability index, Percent Change from Baseline, Mean / alternative disability index, Percent Change from Baseline, Median / alternative disability index, In Clinic Visit (Day 12), Mean / alternative disability index, In Clinic Visit (Day 12), Median: Modified ITT Population-Part A, tadalafil 5 mg, alone or combined as labelled
From the text: The SHAQ is used to calculate a Disability Index to assess the participant qualify of life. The eight categories assessed by the Disability Index are 1) dressing and grooming, 2) arising, 3) eating, 4) walking, 5) hygiene, 6) reach, 7) grip, and 8) common daily activities. For each of these categories, patients report the amount of difficulty they have in performing two or three specific activities.
There are four possible responses for the Disability Index questions: • Without any difficulty=0 • With some difficulty=1 • With much difficulty=2 • Unable to do=3 • The highest score reported by the patient for any component question of the eight categories determines the score for that category. • If a component question is left blank or the response is too ambiguous to assign a score, then the score for that category is determined by the remaining completed question(s). • If all component questions are blank or if more than one answer is given, then follow up with the respondent is required. • If the respondent's mark is between the response columns, then move it to the closest one. If it's directly between the two, move it to the higher one.
The aid and device variables are not used to calculate the alternative disability index; it is calculated by adding the scores for each of the categories and dividing by the number of categories answered. This gives a score in the 0 to 3 range.

participants with SSc-RP [2] = experiment: SHAQ - Visual Analog Scale - Raynaud's; assay type: in vivo, human; conditions: Any Cilnidipine (N = 17); Day 12; PP Population, Part A
From the text: The SHAQ includes a Raynaud's VAS, which will be reported at screening and each in-clinic visit. The absolute change in Raynaud-VAS, assessed by the participants response to the SHAQ question ‘In the past 7 days, how much have your Raynaud's interfered with your daily activities?’ at baseline and the end of each dosing period will be calculated similar to frequency data as before.
The standard, validated, patient reported outcome measures tool for SSc patients, the SHAQ, was collected at the time points specified in the study schedules (FIG. 2 and FIGS. 4A and 4B) to assess the participant's quality of life. The SHAQ included a Raynaud's VAS that will also be reported separately.

[3] = Any Cilnidipine (N = 17), Day 12, PP Population, Part A
[4] = Cilnidipine 10 mg, SSc patients, PP, Part A
[5] = Cilnidipine 20 mg, SSc patients, PP, Part A
[6] = Pooled Cilnidipine 10 mg and Cilnidipine 10 mg + Tadalafil 5 mg (N = 9), Day 12, PP Population, Part A
[7] = Pooled Cilnidipine (N = 8), Day 12, PP Population, Part A

COCCOC(=O)C1=C(C)NC(C)=C(C(=O)OC/C=C/c2ccccc2)C1c1cccc([N+](=O)[O-])c1 (stereo not drawn) [Cilnidipine]
SHAQ Alternative Disability Index, Change from Baseline, Mean (SD) (participants with SSc-RP [1]; [3]): −0.006 (0.1912) | SHAQ Alternative Disability Index, Change from Baseline, Median (participants with SSc-RP [1]; [3]): 0.000 | SHAQ Alternative Disability Index, In-Clinic Visit (Day 12), Mean (SD) (participants with SSc-RP [1]; [3]): 0.450 (0.4926) | SHAQ Alternative Disability Index, In-Clinic Visit (Day 12), Median (participants with SSc-RP [1]; [3]): 0.250 | SHAQ Alternative Disability Index, Percent Change from Baseline, Mean (SD) (participants with SSc-RP [1]; [3]): 21.32 (100.525) % | SHAQ Alternative Disability Index, Percent Change from Baseline, Median (participants with SSc-RP [1]; [3]): −10.00% | SHAQ Alternative Disability Index, Change from Baseline, Max (participants with SSc-RP [1]; [4]): 0.38 | SHAQ Alternative Disability Index, Change from Baseline, Mean (participants with SSc-RP [1]; [4]): 0.063 | SHAQ Alternative Disability Index, Change from Baseline, Median (participants with SSc-RP [1]; [4]): 0.000 | SHAQ Alternative Disability Index, Change from Baseline, Min (participants with SSc-RP [1]; [4]): −0.13, | SHAQ Alternative Disability Index, Change from Baseline, Q1 (participants with SSc-RP [1]; [4]): −0.063, | SHAQ Alternative Disability Index, Change from Baseline, Q3 (participants with SSc-RP [1]; [4]): 0.188 | SHAQ Alternative Disability Index, Day 12, Max (participants with SSc-RP [1]; [4]): 1.25 | SHAQ Alternative Disability Index, Day 12, Mean (participants with SSc-RP [1]; [4]): 0.563 | SHAQ Alternative Disability Index, Day 12, Median (participants with SSc-RP [1]; [4]): 0.500 | SHAQ Alternative Disability Index, Day 12, Min (participants with SSc-RP [1]; [4]): 0.00, | SHAQ Alternative Disability Index, Day 12, Q1 (participants with SSc-RP [1]; [4]): 0.000, | SHAQ Alternative Disability Index, Percent Change from Baseline, Max (participants with SSc-RP [1]; [4]): 42.9 | SHAQ Alternative Disability Index, Percent Change from Baseline, Mean (participants with SSc-RP [1]; [4]): 15.87 | SHAQ Alternative Disability Index, Percent Change from Baseline, Median (participants with SSc-RP [1]; [4]): 15.87 | SHAQ Alternative Disability Index, Percent Change from Baseline, Min (participants with SSc-RP [1]; [4]): −11.1, | SHAQ Alternative Disability Index, Percent Change from Baseline, Q1 (participants with SSc-RP [1]; [4]): −11.11, | SHAQ Alternative Disability Index, Percent Change from Baseline, Q3 (participants with SSc-RP [1]; [4]): 42.86 | % change in Alternative Disability Index (participants with SSc-RP [1]; Cilnidipine 20 mg (n = 3)): −42% | SHAQ Alternative Disability Index, Change from Baseline, Max (participants with SSc-RP [1]; [5]): 0.25 | SHAQ Alternative Disability Index, Change from Baseline, Mean (participants with SSc-RP [1]; [5]): 0.000 | SHAQ Alternative Disability Index, Change from Baseline, Median (participants with SSc-RP [1]; [5]): −0.063 | SHAQ Alternative Disability Index, Change from Baseline, Min (participants with SSc-RP [1]; [5]): −0.13, | SHAQ Alternative Disability Index, Day 12, Max (participants with SSc-RP [1]; [5]): 0.50 | SHAQ Alternative Disability Index, Day 12, Mean (participants with SSc-RP [1]; [5]): 0.219 | SHAQ Alternative Disability Index, Day 12, Median (participants with SSc-RP [1]; [5]): 0.188 | SHAQ Alternative Disability Index, Day 12, Min (participants with SSc-RP [1]; [5]): 0.00, | SHAQ Alternative Disability Index, Day 12, Q1 (participants with SSc-RP [1]; [5]): 0.063, | SHAQ Alternative Disability Index, Day 12, Q3 (participants with SSc-RP [1]; [5]): 0.375 | SHAQ Alternative Disability Index, Percent Change from Baseline, Max (participants with SSc-RP [1]; [5]): 100.0 | SHAQ Alternative Disability Index, Percent Change from Baseline, Mean (participants with SSc-RP [1]; [5]): 5.56 | SHAQ Alternative Disability Index, Percent Change from Baseline, Median (participants with SSc-RP [1]; [5]): −33.33 | SHAQ Alternative Disability Index, Percent Change from Baseline, Min (participants with SSc-RP [1]; [5]): −50.0, | SHAQ Alternative Disability Index, Percent Change from Baseline, Q1 (participants with SSc-RP [1]; [5]): −50.00, | SHAQ Alternative Disability Index, Percent Change from Baseline, Q3 (participants with SSc-RP [1]; [5]): 100.00 | alternative disability index, Change from Baseline, Mean (participants with SSc-RP [1]; Day 12, dose cilnidipine 10 mg): 0.063 | alternative disability index, Change from Baseline, Median (participants with SSc-RP [1]; Day 12, dose cilnidipine 10 mg): 0.000 | alternative disability index, Percent Change from Baseline, Mean (participants with SSc-RP [1]; Day 12, dose cilnidipine 10 mg): 15.87% | alternative disability index, Percent Change from Baseline, Median (participants with SSc-RP [1]; Day 12, dose cilnidipine 10 mg): 15.87% | alternative disability index, Change from Baseline, Mean (participants with SSc-RP [1]; Day 12, dose cilnidipine 20 mg): −0.083 | alternative disability index, Change from Baseline, Median (participants with SSc-RP [1]; Day 12, dose cilnidipine 20 mg): −0.125 | alternative disability index, Percent Change from Baseline, Mean (participants with SSc-RP [1]; Day 12, dose cilnidipine 20 mg): −41.67% | alternative disability index, Percent Change from Baseline, Median (participants with SSc-RP [1]; Day 12, dose cilnidipine 20 mg): −41.67% | alternative disability index, In Clinic Visit (Day 12), Mean (participants with SSc-RP [1]; dose cilnidipine 10 mg): 0.563 | alternative disability index, In Clinic Visit (Day 12), Median (participants with SSc-RP [1]; dose cilnidipine 10 mg): 0.500 | alternative disability index, In Clinic Visit (Day 12), Mean (participants with SSc-RP [1]; dose cilnidipine 20 mg): 0.125 | alternative disability index, In Clinic Visit (Day 12), Median (participants with SSc-RP [1]; dose cilnidipine 20 mg): 0.125 | SHAQ Alternative Disability Index, Change from Baseline, Mean (participants with SSc-RP [1]; [6]): 0.021 | SHAQ Alternative Disability Index, Percent Change from Baseline, Median (participants with SSc-RP [1]; [6]): −10.00% | SHAQ Alternative Disability Index, Change from Baseline, Mean (participants with SSc-RP [1]; Pooled Cilnidipine 20 mg and Cilnidipine 20 mg + Tadalafil 5 mg (N = 8), Day 12, PP Population, Part A): −0.036 | SHAQ Alternative Disability Index, Change from Baseline, Mean (participants with SSc-RP [1]; [7]): 0.031 | SHAQ Alternative Disability Index, Change from Baseline, Mean (SD) (participants with SSc-RP [1]; [7]): 0.031 (0.1860) | SHAQ Alternative Disability Index, In-Clinic Visit (Day 12), Mean (SD) (participants with SSc-RP [1]; [7]): 0.391 (0.4884) | SHAQ Alternative Disability Index, Percent Change from Baseline, Mean (SD) (participants with SSc-RP [1]; [7]): 9.68 (61.446) % | SHAQ Alternative Disability Index, Percent Change from Baseline, Median (participants with SSc-RP [1]; [7]): −11.11% | % change in Alternative Disability Index (participants with SSc-RP [1]; Pooled Cilnidipine (n = 7)): −13% | % Δ from baseline, alternative disability mean (participants with SSc-RP [1]; Pooled cilnidipine (n=4)): −12.9% | SHAQ Visual Analogue Scale - Raynaud's, Change from Baseline, Mean (SD) (participants with SSc-RP [2]): −0.696 (1.3935)
